Legend:
[1] = test system: acute focal cerebral ischemia (MCA occlusion); set-up: species or system cat; conditions: in vivo; for lived up to 7 days / mortality, 24-28 hours / mortality, 48-72 hours / mortality, less than 24 hours: ip
[2] = test system: neurologic deficits secondary to cerebral ischemia; conditions: man; cited from earlier work
[3] = test system: ischemic neurologic deficit; conditions: cited from earlier work
[4] = test system: analgesic response; conditions: mice; cited from earlier work

O=C1CC[C@@]2(O)[C@H]3Cc4ccc(O)c5c4[C@@]2(CCN3CC2CC2)[C@H]1O5 [Naltrexone]
effect in prolonging survival [1]: prolonged survival | lived up to 7 days [1]: 40% | mortality, 24-28 hours [1]: 10% | mortality, 48-72 hours [1]: 10% | mortality, less than 24 hours [1]: 40%

C=CCN1CC[C@]23c4c5ccc(O)c4O[C@H]2C(=O)CC[C@@]3(O)[C@H]1C5 [Naloxone, 17-allyl-4-5α-epoxy-3,14-dihydroxymorphinan-6-one]
effect on neurologic deficits secondary to cerebral ischemia [2]: can reverse neurologic deficits | effect in prolonging survival [1]: prolonged survival | lived up to 7 days [1]: 31% | mortality, 24-28 hours [1]: 15% | mortality, 48-72 hours [1]: 0% | mortality, less than 24 hours [1]: 54% | survival and neurologic function in several models of stroke ([3]; gerbils (Holaday and D'Amato)): no beneficial effect | neurologic function and infarct size after temporary carotid occlusion ([3]; gerbils (Levy et al.)): did not produce improved neurologic function or alter infarct size | neurologic deficits produced by unilateral carotid ligation ([3]; gerbils, intraperitoneal (Hosobuchi et al.)): can be reversed

CN1CC[C@]23c4c5ccc(O)c4O[C@H]2[C@@H](O)C=C[C@H]3[C@H]1C5 [morphine]
effect on neurologic deficits secondary to cerebral ischemia [2]: exacerbates them

Dynorphin
analgesic potency [4]: little or no analgesic potency
